Experimental data published in ChEMBL document CHEMBL5107990, “Discovery of 2-vinyl-10H-phenothiazine derivatives as a class of ferroptosis inhibitors with minimal human Ether-a-go-go related gene (hERG) activity for the treatment of DOX-induced cardiomyopathy” (Bioorg Med Chem Lett, 2022).
Calls of active or inactive are those of the source. The calls are words filed in the database; no cut-off is given here.

Columns and labels:
HT-1080 [1] = assay: Anti-ferroptotic activity against Erastin-induced ferroptosis in human HT-1080 cells; format: functional, cell-based
[2] = target: Voltage-gated inwardly rectifying potassium channel KCNH2 (Homo sapiens, UniProt Q12809); assay: Inhibition of hERG; format: toxicity
HT-1080 [3] = assay: Anti-ferroptotic activity against Erastin-induced ferroptosis in human HT-1080 cells assessed as cell viability measured by MTT assay; format: functional, cell-based
Calu-1 [4] = assay: Anti-ferroptotic activity against Erastin-induced ferroptosis in human Calu-1 cells assessed as cell viability measured by MTT assay; format: functional, cell-based
ES-2 = assay: Anti-ferroptotic activity against Erastin-induced ferroptosis in human ES2 cells assessed as cell viability measured by MTT assay; format: functional, cell-based
MDA-MB-231 = assay: Anti-ferroptotic activity against Erastin-induced ferroptosis in human MDA-MB-231 cells assessed as cell viability measured by MTT assay; format: functional, cell-based
HT-1080 [5] = assay: Anti-ferroptotic activity against Erastin-induced ferroptosis in human HT-1080 cells assessed as decrease in smaller and rounder cells measured by cytocalcein violet 450 staining method; format: functional, cell-based
HT-1080 [6] = assay: Anti-ferroptotic activity against Erastin-induced ferroptosis in human HT-1080 cells assessed as decrease in smaller and rounder cells measured by 7-AAD staining method; format: functional, cell-based
Calu-1 [7] = assay: Anti-ferroptotic activity against Erastin-induced ferroptosis in human Calu-1 cells assessed as decrease in smaller and rounder cells measured by cytocalcein violet 450 staining method; format: functional, cell-based
Calu-1 [8] = assay: Anti-ferroptotic activity against Erastin-induced ferroptosis in human Calu-1 cells assessed as decrease in smaller and rounder cells measured by 7-AAD staining method; format: functional, cell-based
HT-1080 [9] = assay: Anti-ferroptotic activity against Erastin-induced ferroptosis in human HT-1080 cells assessed as decrease in MDA level at 0.01 to 1 uM; format: functional, cell-based; settings: dose 0.01-1 µM
[10] = Antioxidant activity assessed as DPPH radical scavenging activity at 10 to 50 uM; format: functional; settings: dose 10-50 µM
HT-1080 [11] = assay: Antioxidant activity in human HT-1080 cells assessed as reduction in ROS production in cytoplasm at 0.01 to 1 uM measured by H2DCFDA staining method; format: functional, cell-based; settings: dose 0.01-1 µM
HT-1080 [12] = assay: Antioxidant activity in human HT-1080 cells assessed as reduction in lipid ROS production at 0.01 to 1 uM measured by C11-BODIPY staining method; format: functional, cell-based; settings: dose 0.01-1 µM
Mus musculus [13] = assay: Protection against doxorubicin-induced cardiomyopathy model of mouse assessed as decrease in serum AST level at 10 to 30 mg/kg, ip administered 2 hrs prior to doxorubicin administration; format: functional, organism-based; settings: dose 10-30 mg/kg
Mus musculus [14] = assay: Protection against doxorubicin-induced cardiomyopathy model of mouse assessed as decrease in serum ALT level at 10 to 30 mg/kg, ip administered 2 hrs prior to doxorubicin administration; format: functional, organism-based; settings: dose 10-30 mg/kg
Mus musculus [15] = assay: Protection against doxorubicin-induced cardiomyopathy model of mouse assessed as decrease in serum CK-MB level at 10 to 30 mg/kg, ip administered 2 hrs prior to doxorubicin administration; format: functional, organism-based; settings: dose 10-30 mg/kg
Mus musculus [16] = assay: Protection against doxorubicin-induced cardiomyopathy model of mouse assessed as decrease in serum LDH level at 10 to 30 mg/kg, ip administered 2 hrs prior to doxorubicin administration; format: functional, organism-based; settings: dose 10-30 mg/kg
Mus musculus [17] = assay: Protection against doxorubicin-induced cardiomyopathy model of mouse assessed as […] in collagen outflow at 10 to 30 mg/kg, ip administered 2 hrs prior to doxorubicin administration measured by H and E staining method; format: functional, organism-based; settings: dose 10-30 mg/kg
Mus musculus [18] = assay: Protection against doxorubicin-induced cardiomyopathy model of mouse assessed as […] in collagen outflow at 10 to 30 mg/kg, ip administered 2 hrs prior to doxorubicin administration measured by Sirius red staining method; format: functional, organism-based; settings: dose 10-30 mg/kg

Chain of Voltage-gated inwardly rectifying potassium channel KCNH2 (Q12809 whole entry): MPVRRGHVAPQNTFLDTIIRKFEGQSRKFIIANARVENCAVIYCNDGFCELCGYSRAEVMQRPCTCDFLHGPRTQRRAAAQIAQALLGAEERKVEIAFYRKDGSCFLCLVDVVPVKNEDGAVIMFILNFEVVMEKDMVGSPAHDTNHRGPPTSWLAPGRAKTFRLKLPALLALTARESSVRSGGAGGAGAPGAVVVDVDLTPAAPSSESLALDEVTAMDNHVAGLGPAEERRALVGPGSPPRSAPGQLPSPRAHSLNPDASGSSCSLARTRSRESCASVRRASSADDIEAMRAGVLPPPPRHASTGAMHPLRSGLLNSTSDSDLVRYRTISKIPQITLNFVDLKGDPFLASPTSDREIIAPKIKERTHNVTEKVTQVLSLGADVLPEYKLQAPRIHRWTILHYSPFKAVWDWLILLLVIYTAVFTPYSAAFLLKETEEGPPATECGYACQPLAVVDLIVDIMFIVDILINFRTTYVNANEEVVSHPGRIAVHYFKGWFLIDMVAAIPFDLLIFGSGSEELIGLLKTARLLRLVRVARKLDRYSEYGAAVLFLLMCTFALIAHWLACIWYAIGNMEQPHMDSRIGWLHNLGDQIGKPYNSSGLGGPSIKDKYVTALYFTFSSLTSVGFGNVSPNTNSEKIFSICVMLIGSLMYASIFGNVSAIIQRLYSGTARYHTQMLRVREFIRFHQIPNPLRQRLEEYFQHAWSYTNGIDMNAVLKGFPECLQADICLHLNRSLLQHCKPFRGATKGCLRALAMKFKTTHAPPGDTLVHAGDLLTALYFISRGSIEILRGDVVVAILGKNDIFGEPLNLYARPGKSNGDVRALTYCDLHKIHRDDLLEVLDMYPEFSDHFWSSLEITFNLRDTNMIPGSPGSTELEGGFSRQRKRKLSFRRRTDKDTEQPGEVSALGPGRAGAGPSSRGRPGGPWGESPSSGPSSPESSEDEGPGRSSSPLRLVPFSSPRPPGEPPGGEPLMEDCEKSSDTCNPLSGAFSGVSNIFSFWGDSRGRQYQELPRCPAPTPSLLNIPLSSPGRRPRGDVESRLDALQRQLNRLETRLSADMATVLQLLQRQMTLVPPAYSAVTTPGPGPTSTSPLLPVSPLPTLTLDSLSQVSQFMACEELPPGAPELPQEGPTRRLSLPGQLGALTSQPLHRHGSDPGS

## C=C(c1ccc2c(c1)Nc1ccccc1S2)c1cnc2c(ccn2C)c1
HT-1080 [1]
  EC50: 42 nM

## C=C(c1ccc(OC)cc1)c1ccc2c(c1)Nc1ccccc1S2
HT-1080 [1]
  EC50: 13 nM

## C=C(c1ccc2c(c1)Nc1ccccc1S2)c1cnc2c(cnn2C)c1
HT-1080 [1]
  EC50: 58 nM

## C=C(c1ccc(NC(=O)N(C)C)cc1)c1ccc2c(c1)Nc1ccccc1S2
HT-1080 [1]
  EC50: 20 nM

## C=C(c1ccc2c(c1)Nc1ccccc1S2)c1cccc2ccncc12
HT-1080 [1]
  EC50: 21 nM

## C=C(c1ccc2c(c1)Nc1ccccc1S2)c1ccc2c(c1)OCCO2
HT-1080 [1]
  EC50: 37 nM

## C=C(c1ccc2c(c1)Nc1ccccc1S2)c1ccc2c(c1)SCC(=O)N2
HT-1080 [1]
  EC50: 33 nM

## C=C(c1ccc2c(c1)Nc1ccccc1S2)c1cncc2ccccc12
HT-1080 [1]
  EC50: 25 nM

## C=C(c1ccc(NC(N)=O)cc1)c1ccc2c(c1)Nc1ccccc1S2
HT-1080 [1]
  EC50: 1 nM
[2]
  IC50: > 30000 nM
HT-1080 [3]
  EC50: 1.61 nM
Calu-1 [4]
  EC50: 3.36 nM
ES-2
  EC50: 1.81 nM
MDA-MB-231
  EC50: 1.01 nM
HT-1080 [5]
  Activity: Active
HT-1080 [6]
  Activity: Active
Calu-1 [7]
  Activity: Active
Calu-1 [8]
  Activity: Active
HT-1080 [9]
  Activity: Active
[10]
  Activity: Active
HT-1080 [11]
  Activity: Active
HT-1080 [12]
  Activity: Active
Mus musculus [13]
  Activity: Active
Mus musculus [14]
  Activity: Active
Mus musculus [15]
  Activity: Active
Mus musculus [16]
  Activity: Active
Mus musculus [17]
  Activity: Active
Mus musculus [18]
  Activity: Active

## C=C(c1ccc(N)cc1)c1ccc2c(c1)Nc1ccccc1S2
HT-1080 [1]
  EC50: 8 nM

## C=C(c1ccc(N2CCOCC2)cc1)c1ccc2c(c1)Nc1ccccc1S2
HT-1080 [1]
  EC50: 39 nM

## C=C(c1ccc(C(F)(F)F)cc1)c1ccc2c(c1)Nc1ccccc1S2
HT-1080 [1]
  EC50: 11 nM

## C=C(c1ccc(N2CC[C@H](N(C)C)C2)cc1)c1ccc2c(c1)Nc1ccccc1S2
HT-1080 [1]
  EC50: 1 nM
[2]
  IC50: 5060 nM

## C=C(c1ccc2c(c1)Nc1ccccc1S2)c1cnc2ccccc2c1
HT-1080 [1]
  EC50: 19 nM

## C=C(c1ccc(NC(C)=O)cc1)c1ccc2c(c1)Nc1ccccc1S2
HT-1080 [1]
  EC50: 4 nM
[2]
  IC50: 22000 nM

## C=C(c1ccccc1)c1ccc2c(c1)Nc1ccccc1S2
HT-1080 [1]
  EC50: 10 nM

## CC(c1ccc(N2C[C@@H]3C[C@H]2CN3C)cc1)c1ccc2c(c1)Nc1ccccc1S2 (stereo partly drawn)
HT-1080 [1]
  EC50: 3 nM
[2]
  IC50: 1980 nM

## C=C(c1cccc(N)c1)c1ccc2c(c1)Nc1ccccc1S2
HT-1080 [1]
  EC50: 17 nM

## C=C(c1ccc2c(c1)Nc1ccccc1S2)c1ccccc1N
HT-1080 [1]
  EC50: 29 nM

## C=C(c1ccc(N2C[C@@H]3C[C@H]2CN3C)cc1)c1ccc2c(c1)Nc1ccccc1S2
HT-1080 [1]
  EC50: 3 nM
[2]
  IC50: 12000 nM

## C=C(c1ccc(-c2ccccc2)cc1)c1ccc2c(c1)Nc1ccccc1S2
HT-1080 [1]
  EC50: 41 nM

## C=C(c1cnc2c(c1)CCN2)c1ccc2c(c1)Nc1ccccc1S2
HT-1080 [1]
  EC50: 89 nM

## C=C(c1ccc(C2CCCCC2)cc1)c1ccc2c(c1)Nc1ccccc1S2
HT-1080 [1]
  EC50: 39 nM

## C=C(c1ccc2c(c1)Nc1ccccc1S2)c1cccc2cnccc12
HT-1080 [1]
  EC50: 26 nM

## C=C(c1ccc(C(C)C)cc1)c1ccc2c(c1)Nc1ccccc1S2
HT-1080 [1]
  EC50: 40 nM
